One experiment addresses 1b mutant enzyme R155N (Hepatitis C virus genotype 1b, UniProt P26663, R1181N). In words: NS3/4A TRF enzyme assay, 1b mutant R155N. It is filed as biochemical, hepatitis C virus (HCV). On the procedure:
(§1) A NS3 protease assay can be performed, for example, in a final volume of 100 μl assay buffer containing 50 mM HEPES, pH 7.5, 150 mM NaCl, 15% glycerol, 0.15% TRITON X-100, 10 mM DTT, and 0.1% PEG 8000. NS3 and NS4A protease is pre-incubated with various concentrations of inhibitors in DMSO for 30 minutes. The reaction is initiated by adding the TRF peptide substrate (final concentration 100 nM). NS3 mediated hydrolysis of the substrate is quenched after 1 hour at room temperature with 100 μl of 500 mM MES, pH 5.5. […] Testing concentrations of different enzyme forms are selected to result in a signal to background ratio (S/B) of 10-30. IC50 values are derived using a standard four-parameter fit to the data. Ki values are derived from IC50 values using the following formula, IC50=Ki(1+[S]/KM), Eqn (1), where [S] is the concentration of substrate peptide in the reaction and KM is the Michaelis constant. See P. Gallinari et al., 38 BIOCHEM. […] BIOCHEM. […] V. General Compound Production
(§2) NS 3/4A Inhibitory Activity^1 (Ki): NS 3/4A Inhibitory Activity was determined as described in Section IV.

In another experiment the test system is HCV replicon gt1b. Description: HCV replicon activity, genotype 1b. It is filed as cell-based. Conditions: Hepatitis C virus; genotype 1b replicon; 50% viral replication suppression; read-out: Replicon Activity EC50 gtlb.
The next experiment addresses 1b mutant enzyme R155Q (Hepatitis C virus genotype 1b, UniProt P26663, R1181Q). Description: NS3/4A TRF enzyme assay, 1b mutant R155Q. It is filed as biochemical, hepatitis C virus (HCV). On the procedure: as §1, §2
The next experiment concerns the target 1b mutant enzyme A156V (Hepatitis C virus genotype 1b, UniProt P26663, A1182V). Description: NS3/4A TRF enzyme assay, 1b mutant A156V. It is filed as biochemical, hepatitis C virus (HCV). On the procedure:
as §1, §2

The next experiment deals with 1b mutant enzyme D168G (Hepatitis C virus genotype 1b, UniProt P26663, D1194G). Description: NS3/4A TRF enzyme assay, 1b mutant D168G. It is filed as biochemical, hepatitis C virus (HCV). The method, then: as §1, §2
A further experiment deals with NS 3/4A 1b (Hepatitis C virus genotype 1b, UniProt P26663). Description: biochemical. Conditions: genotype 1b enzyme; read-out: NS 3/4A Inhibitory Activity (Ki) lb. The method, then: A NS3 protease assay can be performed, for example, in a final volume of 100 μl assay buffer containing 50 mM HEPES, pH 7.5, 150 mM NaCl, 15% glycerol, 0.15% TRITON X-100, 10 mM DTT, and 0.1% PEG 8000. NS3 and NS4A protease is pre-incubated with various concentrations of inhibitors in DMSO for 30 minutes. The reaction is initiated by adding the TRF peptide substrate (final concentration 100 nM). NS3 mediated hydrolysis of the substrate is quenched after 1 hour at room temperature with 100 μl of 500 mM MES, pH 5.5. […] IC50 values are derived using a standard four-parameter fit to the data. […] See P. Gallinari et al., 38 BIOCHEM. […] BIOCHEM. […] V. General Compound Production
as §2

Another experiment has as its target 1b mutant enzyme A156T (Hepatitis C virus genotype 1b, UniProt P26663, A1182T). Description: NS3/4A TRF enzyme assay, 1b mutant A156T. It is filed as biochemical, hepatitis C virus (HCV). The method, then:
as §1, §2

A further experiment concerns the target 1b mutant enzyme D168Y (Hepatitis C virus genotype 1b, UniProt P26663, D1194Y). In words: NS3/4A TRF enzyme assay, 1b mutant D168Y. It is filed as biochemical, hepatitis C virus (HCV). On the procedure: as §1, §2
A further experiment addresses 1b mutant enzyme D168V (Hepatitis C virus genotype 1b, UniProt P26663, D1194V). Description: NS3/4A TRF enzyme assay, 1b mutant D168V. It is filed as biochemical, hepatitis C virus (HCV). The method, then:
as §1, §2

A further experiment addresses 1b mutant enzyme D168A (Hepatitis C virus genotype 1b, UniProt P26663, D1194A). In words: NS3/4A TRF enzyme assay, 1b mutant D168A. It is filed as biochemical, hepatitis C virus (HCV). On the procedure:
as §1, §2

In another experiment the target is 1b mutant enzyme R155K (Hepatitis C virus genotype 1b, UniProt P26663, R1181K). Description: NS3/4A TRF enzyme assay, 1b mutant R155K. It is filed as biochemical, hepatitis C virus (HCV). On the procedure:
as §1, §2

A further experiment has as its target 1b mutant enzyme R155G (Hepatitis C virus genotype 1b, UniProt P26663, R1181G). Description: NS3/4A TRF enzyme assay, 1b mutant R155G. It is filed as biochemical, hepatitis C virus (HCV). On the procedure: as §1, §2
In a further experiment the target is 1b mutant enzyme D168E (Hepatitis C virus genotype 1b, UniProt P26663, D1194E). In words: NS3/4A TRF enzyme assay, 1b mutant D168E. It is filed as biochemical, hepatitis C virus (HCV). On the procedure:
as §1, §2

Another experiment concerns the target 1b mutant enzyme D168Q (Hepatitis C virus genotype 1b, UniProt P26663, D1194Q). Description: NS3/4A TRF enzyme assay, 1b mutant D168Q. It is filed as biochemical, hepatitis C virus (HCV). On the procedure: as §1, §2
The target in a further experiment is 1b mutant enzyme D168T (Hepatitis C virus genotype 1b, UniProt P26663, D1194T). In words: NS3/4A TRF enzyme assay, 1b mutant D168T. It is filed as biochemical, hepatitis C virus (HCV). The method, then: as §1, §2
Another experiment addresses 1b mutant enzyme A156S (Hepatitis C virus genotype 1b, UniProt P26663, A1182S). In words: NS3/4A TRF enzyme assay, 1b mutant A156S. It is filed as biochemical, hepatitis C virus (HCV). The method, then:
as §1, §2

One may read the EC50 as the concentration giving half of the maximal effect. For the molecule `C=C[C@@H]1C[C@]1(NC(=O)[C@@H]1C[C@@H]2CN1C(=O)[C@H](C(C)(C)C)NC(=O)O[C@@H]1CCC[C@H]1CCCCCc1nc3ccc(OC)cc3nc1O2)C(=O)NS(=O)(=O)C1CC1` [WO 2008/057209 Example 118], the Ki at 1b mutant enzyme R155N was 0.56 nM; at 1b mutant enzyme R155Q, 1.9 nM; on 1b mutant enzyme A156V, 15 nM; at 1b mutant enzyme D168G, 0.45 nM; on NS 3/4A 1b, less than 0.016 nM; at 1b mutant enzyme A156T, 3.4 nM. For the same molecule, the Ki at 1b mutant enzyme D168Y was found to be 1.5 nM; on 1b mutant enzyme D168V it was 0.65 nM; at 1b mutant enzyme D168A, 0.86 nM; at 1b mutant enzyme R155K, 0.08 nM; at 1b mutant enzyme R155G, 2.3 nM; on 1b mutant enzyme D168E it was 0.12 nM. Moreover, the values for the Ki at 1b mutant enzyme D168Q, at 1b mutant enzyme D168T and on 1b mutant enzyme A156S were 0.42 nM, 0.78 nM and 0.1 nM, respectively. The EC50 with HCV replicon gt1b is 3 nM.

These data come from patent US8080654B2, “Macrocyclic quinoxaline compounds as HCV NS3 protease inhibitors” (Insituto di Ricerche di Biologia Molecolare P. Angeletti SpA, priority 2008, dated 2011).
